Format in all cases: biochemical
The target in test [1] is VIM-2 (Veronese metallo-β-lactamase-2) (Escherichia coli, UniProt Q5U7L7). The experiment in a line: Enzyme inhibition assay, VIM-2. The settings on record: for IC50: read-out: pIC50 VIM-2 (converted). How it is done: (§1) The biological activity of the compounds of the present invention was tested using standard assay protocols.^7 The following representative enzymes NDM-1 (New Delhi metallo-β-lactamase-1), IMP-1 (Imipenemase-1) and VIM-2 (Veronese metallo-β-lactamase-2) were selected from different clinically relevant B1 metallo-β-lactamases.

In a further test the target is IMP-1 (Imipenemase-1) (Serratia marcescens, UniProt P52699). The experiment in a line: Enzyme inhibition assay, IMP-1. As to conditions: for IC50: read-out: pIC50 IMP-1 (converted). The method, then:
as §1

Test [2] addresses NDM-1 (New Delhi metallo-β-lactamase-1) (Klebsiella pneumoniae, UniProt C7C422). The experiment in a line: Enzyme inhibition assay, NDM-1. As to conditions: for IC50: read-out: pIC50 NDM-1 (converted). The method, then:
as §1

Sequence of IMP-1 (Imipenemase-1) (P52699 19-246, looked up, species assumed): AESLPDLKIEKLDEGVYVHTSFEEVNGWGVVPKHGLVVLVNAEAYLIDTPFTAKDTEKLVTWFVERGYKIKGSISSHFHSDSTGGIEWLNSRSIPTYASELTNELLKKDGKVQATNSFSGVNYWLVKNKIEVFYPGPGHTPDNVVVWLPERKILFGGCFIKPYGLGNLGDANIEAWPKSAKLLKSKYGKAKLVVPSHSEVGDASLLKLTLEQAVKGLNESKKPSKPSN
Sequence of NDM-1 (New Delhi metallo-β-lactamase-1) (C7C422 29-270, looked up, species assumed): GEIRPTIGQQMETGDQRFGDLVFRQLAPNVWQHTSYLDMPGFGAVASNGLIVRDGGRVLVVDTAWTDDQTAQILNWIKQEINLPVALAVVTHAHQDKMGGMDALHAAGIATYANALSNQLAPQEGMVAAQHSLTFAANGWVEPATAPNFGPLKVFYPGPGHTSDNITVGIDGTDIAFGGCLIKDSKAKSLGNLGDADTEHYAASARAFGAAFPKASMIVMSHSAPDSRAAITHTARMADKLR

On to `CN(C)S(=O)(=O)c1ccc(-c2c(C(=O)O)[nH]c3c(CCOc4ccccc4)cccc23)cc1` [Example 81, 3-(4-(N,N-dimethylsulfamoyl)phenyl)-7-(2-phenoxyethyl)-1H-indole-2-carboxylic acid], for which the IC50 in test [1] was 63.1 nM; on IMP-1 (Imipenemase-1), 100 nM; in test [2], 1.58 nM.

Turning to `COc1ccc(-c2c(C(=O)O)[nH]c3c(C)cccc23)cc1` [Example 9, 3-(4-methoxyphenyl)-7-methyl-1H-indole-2-carboxylic acid], the IC50 was 251 nM in test [1], 7940 nM at IMP-1 (Imipenemase-1) and 50.1 nM in test [2].

`CC(C)(C)c1cccc2c(-c3ccc(F)cc3)c(C(=O)O)[nH]c12` [Example 57, 7-(tert-butyl)-3-(4-fluorophenyl)-1H-indole-2-carboxylic acid]: the IC50 in test [1] was 100 nM; on IMP-1 (Imipenemase-1), 100 nM; in test [2] it was 79.4 nM.

`Cc1cccc2c(-c3ccccn3)c(C(=O)O)[nH]c12` [Example 63, 7-methyl-3-(pyridin-2-yl)-1H-indole-2-carboxylic acid]: the IC50 in test [1] is 1000 nM; on IMP-1 (Imipenemase-1), greater than 100000 nM; in test [2] it was 316 nM.

As to `CC(C)c1cccc2c(-c3ccc(N4CCOCC4)cc3)c(C(=O)O)[nH]c12` [Example 70, 7-isopropyl-3-(4-morpholinophenyl)-1H-indole-2-carboxylic acid], the IC50 is 79.4 nM in test [1], 10 nM at IMP-1 (Imipenemase-1) and 2.51 nM in test [2].

Regarding `CCCc1cccc2c(-c3ccc(F)cc3)c(C(=O)O)[nH]c12` [Example 52, 3-(4-fluorophenyl)-7-propyl-1H-indole-2-carboxylic acid], the IC50 in test [1] was 316 nM; on IMP-1 (Imipenemase-1), 316 nM; in test [2], 20 nM.

In the case of `Cc1cccc2c(C3=CCN(C(=O)OC(C)(C)C)CC3)c(C(=O)O)[nH]c12` [Example 25, 3-(1-(tert-butoxycarbonyl)-1,2,3,6-tetrahydropyridin-4-yl)-7-methyl-1H-indole-2-carboxylic acid], the IC50 in test [1] is 2000 nM; at IMP-1 (Imipenemase-1), 5010 nM; in test [2] it was 31.6 nM.

Turning to `Cc1ccc2c(-c3ccc(F)cc3)c(C(=O)O)[nH]c2c1C` [Example 56, 3-(4-fluorophenyl)-6,7-dimethyl-1H-indole-2-carboxylic acid], the results for the IC50 (in test [1]; at IMP-1 (Imipenemase-1); in test [2]) were 398 nM, 7940 nM and 31.6 nM, respectively.

Take `COc1ccccc1-c1c(C(=O)O)[nH]c2c(C)cccc12` [Example 20, 3-(2-methoxyphenyl)-7-methyl-1H-indole-2-carboxylic acid]: the IC50 was 200 nM in test [1], 79400 nM at IMP-1 (Imipenemase-1) and 126 nM in test [2].

`Cc1cccc2c(-c3cccc(S(C)(=O)=O)c3)c(C(=O)O)[nH]c12` [Example 16, 7-methyl-3-(3-(methylsulfonyl)phenyl)-1H-indole-2-carboxylic acid]: the values for the IC50 (in test [1]; on IMP-1 (Imipenemase-1); in test [2]) were 794 nM, 12600 nM and 50.1 nM, respectively.

In the case of `Cc1cc(C)c2[nH]c(C(=O)O)c(-c3ccc(F)cc3)c2c1` [Example 59, 3-(4-fluorophenyl)-5,7-dimethyl-1H-indole-2-carboxylic acid], the IC50 in test [1] was 501 nM; on IMP-1 (Imipenemase-1), 25100 nM; in test [2] it was 126 nM.

As to `Cc1cccc2c(-c3ccc(Br)cc3)c(C(=O)O)[nH]c12` [Example 10, 3-(4-bromophenyl)-7-methyl-1H-indole-2-carboxylic acid], the values for the IC50 (in test [1]; on IMP-1 (Imipenemase-1); in test [2]) were 200 nM, 7940 nM and 25.1 nM, respectively.

Regarding `Cc1cccc2c1cc(C(=O)O)n2-c1ccc(F)cc1` [Example 120, 1-(4-fluorophenyl)-4-methyl-1H-indole-2-carboxylic acid], the values for the IC50 (in test [1]; on IMP-1 (Imipenemase-1); in test [2]) were 31600 nM, greater than 100000 nM and greater than 20000 nM, respectively.

Turning to `CC(C)c1cccc2c(-c3ccncc3)c(C(=O)O)[nH]c12` [Example 68, 7-isopropyl-3-(pyridin-4-yl)-1H-indole-2-carboxylic acid], the IC50 was 31.6 nM in test [1], 39.8 nM on IMP-1 (Imipenemase-1) and 6.31 nM in test [2].

Turning to `CC(C)c1cccc2c(-c3ccc(S(=O)(=O)N(C)C)cc3)c(C(=O)O)[nH]c12` [Example 73], the IC50 is 31.6 nM in test [1], 31.6 nM on IMP-1 (Imipenemase-1) and 0.355 nM in test [2].

As for `COc1cccc(-c2c(C(=O)O)[nH]c3c(C(C)C)cccc23)c1OC` [Example 77, 3-(2,3-dimethoxyphenyl)-7-isopropyl-1H-indole-2-carboxylic acid], the IC50 in test [1] was 6.31 nM; on IMP-1 (Imipenemase-1), 12600 nM; in test [2], 200 nM.

Regarding `Cc1cccc2c(-c3ccn4ncnc4c3)c(C(=O)O)[nH]c12` [Example 21, 3-([1,2,4]triazolo[1,5-a]pyridin-7-yl)-7-methyl-1H-indole-2-carboxylic acid], the IC50 is 126 nM in test [1], greater than 100000 nM on IMP-1 (Imipenemase-1) and 126 nM in test [2].

Take `Cc1cccc2c(-c3cccnc3)c(C(=O)O)[nH]c12` [Example 24, 7-methyl-3-(pyridin-3-yl)-1H-indole-2-carboxylic acid]: the IC50 in test [1] is 631 nM; on IMP-1 (Imipenemase-1), 12600 nM; in test [2] it was 100 nM.

Take `CC(C)c1cccc2c(-c3ccc(CN4CCOCC4)cc3)c(C(=O)O)[nH]c12` [Example 94, 7-isopropyl-3-(4-(morpholinomethyl)phenyl)-1H-indole-2-carboxylic acid]: the figures for the IC50 (in test [1]; on IMP-1 (Imipenemase-1); in test [2]) were 105 nM, 105 nM and 5.89 nM, respectively.

As for `Cc1c(Oc2ccccc2)ccc2c(-c3ccc(F)cc3)c(C(=O)O)[nH]c12` [Example 64, 3-(4-fluorophenyl)-7-methyl-6-phenoxy-1H-indole-2-carboxylic acid], the figures for the IC50 (in test [1]; at IMP-1 (Imipenemase-1); in test [2]) were 501 nM, 1580 nM and 15.8 nM, respectively.

Regarding `Cc1cccc2c(-c3ccc([N+](=O)[O-])cc3)c(C(=O)O)[nH]c12` [Example 8, 7-methyl-3-(4-nitrophenyl)-1H-indole-2-carboxylic acid], the IC50 was 251 nM in test [1], 25100 nM on IMP-1 (Imipenemase-1) and 79.4 nM in test [2].

For `Cc1cccc2c(-c3ccc(F)cc3)c(C(=O)O)[nH]c12` [Example 49, 3-(4-fluorophenyl)-7-methyl-1H-indole-2-carboxylic acid], the IC50 is 501 nM in test [1], 15800 nM at IMP-1 (Imipenemase-1) and 31.6 nM in test [2].

For `CC(C)c1cccc2c(-c3ccc(S(C)(=O)=O)cc3)c(C(=O)O)[nH]c12` [Example 67, 7-isopropyl-3-(4-(methylsulfonyl)phenyl)-1H-indole-2-carboxylic acid], the IC50 is 20 nM in test [1], 39.8 nM on IMP-1 (Imipenemase-1) and 2.51 nM in test [2].

Regarding `O=C(O)c1[nH]c2c(CCOc3ccccc3)cccc2c1-c1ccc(F)cc1` [Example 62, 3-(4-fluorophenyl)-7-(2-phenoxyethyl)-1H-indole-2-carboxylic acid], the IC50 in test [1] was 158 nM; at IMP-1 (Imipenemase-1) it was 316 nM; in test [2], 5.01 nM.

`Cc1cccc2c(-c3ccc4[nH]ncc4c3)c(C(=O)O)[nH]c12` [Example 19, 3-(1H-indazol-5-yl)-7-methyl-1H-indole-2-carboxylic acid]: the IC50 in test [1] was 100 nM; on IMP-1 (Imipenemase-1), 5010 nM; in test [2], 31.6 nM.

For the compound `Cc1cccc2c(C3CCN(C(=O)OC(C)(C)C)CC3)c(C(=O)O)[nH]c12` [Example 105, 3-(1-tert-butoxycarbonyl-4-piperidyl)-7-methyl-1H-indole-2-carboxylic acid], the IC50 in test [1] is 2510 nM; on IMP-1 (Imipenemase-1) it was 31600 nM; in test [2], 158 nM.

Consider `Cc1cccc2c(-c3cc(Cl)cc(Cl)c3)c(C(=O)O)[nH]c12` [Example 3, 3-(3,5-dichlorophenyl)-7-methyl-1H-indole-2-carboxylicacid], for which the IC50 is less than 5.01 nM in test [1], 5010 nM on IMP-1 (Imipenemase-1) and 39.8 nM in test [2].

Consider `CC(C)c1cccc2c(-c3ccc4[nH]ncc4c3)c(C(=O)O)[nH]c12` [Example 75, 3-(1H-indazol-5-yl)-7-isopropyl-1H-indole-2-carboxylic acid], for which the values for the IC50 (in test [1]; at IMP-1 (Imipenemase-1); in test [2]) were 10 nM, 25.1 nM and 2 nM, respectively.

In the case of `CC(C)c1cccc2c(-c3cc(F)cc(F)c3)c(C(=O)O)[nH]c12` [Example 78, 3-(3,5-difluorophenyl)-7-isopropyl-1H-indole-2-carboxylic acid], the IC50 in test [1] is 3.98 nM; on IMP-1 (Imipenemase-1) it was 126 nM; in test [2], 10 nM.

Take `Cc1cccc2c(-c3ccc(OC(F)(F)F)cc3)c(C(=O)O)[nH]c12` [Example 2, 7-methyl-3-(4-(trifluoromethoxy)phenyl)-1H-indole-2-carboxylic acid]: the IC50 in test [1] is 398 nM; at IMP-1 (Imipenemase-1), 7940 nM; in test [2], 50.1 nM.

`Cc1cccc2c(-c3cncnc3)c(C(=O)O)[nH]c12` [Example 22, 7-methyl-3-(pyrimidin-5-yl)-1H-indole-2-carboxylic acid]: the IC50 was 1260 nM in test [1], greater than 100000 nM at IMP-1 (Imipenemase-1) and 126 nM in test [2].

For `CC(C)c1cccc2c(-c3ccc(S(=O)(=O)N(C)C)cc3)c(C(=O)Nc3nccs3)[nH]c12` [Example 124, 3-(4-(N,N-dimethylsulfamoyl)phenyl)-7-isopropyl-N-(thiazol-2-yl)-1H-indole-2-carboxamide], the “pIC50 VIM-2” value in test [1] is listed as “N.I”. In addition, the “pIC50 IMP-1” value against IMP-1 (Imipenemase-1) is reported as “N.I”. In test [2], the “pIC50 NDM-1” value was “N.I”.

These data come from US11439622B2 (OXFORD UNIVERSITY INNOVATION LIMITED, priority 2015, dated 2022).
